From patent US20210395239A1 (Hoffmann-La Roche Inc., priority 2018, published 2021)

Biological target: T1, hTLR9 (Homo sapiens, UniProt Q9NR96)
T1 sequence (Q9NR96 26-1032): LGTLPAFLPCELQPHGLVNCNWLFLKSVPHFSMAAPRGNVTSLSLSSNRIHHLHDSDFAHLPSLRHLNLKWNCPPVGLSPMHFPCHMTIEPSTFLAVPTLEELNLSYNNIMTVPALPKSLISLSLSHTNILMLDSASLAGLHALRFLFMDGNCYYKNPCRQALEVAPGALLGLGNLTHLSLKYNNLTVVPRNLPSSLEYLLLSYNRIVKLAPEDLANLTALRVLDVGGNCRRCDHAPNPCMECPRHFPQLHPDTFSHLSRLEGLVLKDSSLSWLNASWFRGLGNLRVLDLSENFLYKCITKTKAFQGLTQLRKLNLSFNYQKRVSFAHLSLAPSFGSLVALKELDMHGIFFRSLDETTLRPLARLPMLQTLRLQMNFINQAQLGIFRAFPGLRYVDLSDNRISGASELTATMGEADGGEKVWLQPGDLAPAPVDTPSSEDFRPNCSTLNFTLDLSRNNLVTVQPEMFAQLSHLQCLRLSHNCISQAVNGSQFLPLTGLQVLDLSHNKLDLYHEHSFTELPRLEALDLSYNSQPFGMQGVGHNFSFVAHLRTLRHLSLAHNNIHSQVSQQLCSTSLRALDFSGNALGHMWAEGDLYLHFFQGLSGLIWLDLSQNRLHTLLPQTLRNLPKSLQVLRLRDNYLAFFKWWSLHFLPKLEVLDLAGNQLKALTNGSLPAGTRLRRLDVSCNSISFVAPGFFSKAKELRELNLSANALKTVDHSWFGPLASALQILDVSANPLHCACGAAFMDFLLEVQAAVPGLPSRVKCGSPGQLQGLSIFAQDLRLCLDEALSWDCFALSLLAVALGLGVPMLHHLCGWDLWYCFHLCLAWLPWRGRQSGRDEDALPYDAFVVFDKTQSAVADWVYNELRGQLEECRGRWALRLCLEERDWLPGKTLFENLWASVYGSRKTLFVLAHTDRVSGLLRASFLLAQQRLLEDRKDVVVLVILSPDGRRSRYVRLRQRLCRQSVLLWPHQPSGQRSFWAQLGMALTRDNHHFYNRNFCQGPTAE
Experiment: HEK293-Blue-hTLR-9 cells assay (SEAP reporter, ODN2006 stimulation)
Type: cell-based
Parameters: host or cells: HEK293 (HEK-Blue hTLR9)
Settings: HEK293-Blue-hTLR9 cells, ODN2006, 20 hrs; read-out: HEK/hTLR9 IC50
Summary of the method: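 Antagonism read as lowered SEAP reporter absorbance (620–655 nm, QUANTI-Blue, 2 h, 37 °C) in supernatants. Before that, ODN2006-stimulated HEK293-Blue cells stably expressing human TLR9 were exposed to compound dilutions at 1% final DMSO for 20 h at 37 °C.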

Row | SMILES | IC50 [nM]
1 | C[C@@H]1CN(c2ccc(C#N)n3ncc(F)c23)C[C@H](CN2CCN(c3ccc(N4C[C@H]5NCCO[C@@H]5C4)nc3)CC2)O1 [Example 168, 4-[(2S,6R)-2-[[4-[6-[(4aR,7aR)-3,4,4a,5,7,7a-hexahydro-2H-pyrrolo[3,4-b][1,4]oxazin-6-yl]-3-pyridyl]piperazin-1-yl]methyl]-6-methyl-morpholin-4-yl]-3-fluoro-pyrazolo[1,5-a]pyridine-7-carbonitrile] | 116
2 | C[C@@H]1CN(c2ccc(C#N)n3ncc(F)c23)C[C@H](CN2CCN(c3ccc(N4CC5(CNCCO5)C4)nc3)CC2)O1 [Example 169, 3-fluoro-4-[(2R,6S)-2-methyl-6-[[4-[6-(5-oxa-2,8-diazaspiro[3.5]nonan-2-yl)-3-pyridyl]piperazin-1-yl]methyl]morpholin-4-yl]pyrazolo[1,5-a]pyridine-7-carbonitrile] | 78
3 | C[C@@H]1CN(c2ccc(C#N)n3ncc(F)c23)C[C@H](CN2CCN(c3ccc(N4CC5(CN(C)C5)C4)nc3)CC2)O1 [Example 170, 3-fluoro-4-[(2R,6S)-2-methyl-6-[[4-[6-(6-methyl-2,6-diazaspiro[3.3]heptan-2-yl)-3-pyridyl]piperazin-1-yl]methyl]morpholin-4-yl]pyrazolo[1,5-a]pyridine-7-carbonitrile] | 70
4 | C[C@@H]1CN(c2ccc(C#N)n3ncc(F)c23)C[C@H](CN2CCN(c3ccc(N4CC[C@@H](N)[C@H](F)C4)nc3)CC2)O1 [Example 175, 4-[(2S,6R)-2-[[4-[6-[(3R,4R)-4-amino-3-fluoro-1-piperidyl]-3-pyridyl]piperazin-1-yl]methyl]-6-methyl-morpholin-4-yl]-3-fluoro-pyrazolo[1,5-a]pyridine-7-carbonitrile] | 66
5 | C[C@@H]1CN(c2ccc(C#N)n3ncc(F)c23)C[C@H](CN2CCN(c3ccc(N4CCOC5(CNC5)C4)nc3)CC2)O1 [Example 178, 3-fluoro-4-[(2R,6S)-2-methyl-6-[[4-[6-(5-oxa-2,8-diazaspiro[3.5]nonan-8-yl)-3-pyridyl]piperazin-1-yl]methyl]morpholin-4-yl]pyrazolo[1,5-a]pyridine-7-carbonitrile] | 116
6 | C[C@@H]1CN(c2ccc(C#N)n3ncc(F)c23)C[C@H](CN2CCN(c3ccc(N4CC5(CCN5)C4)nc3)CC2)O1 [Example 179, 4-[(2S,6R)-2-[[4-[6-(1,6-diazaspiro[3.3]heptan-6-yl)-3-pyridyl]piperazin-1-yl]methyl]-6-methyl-morpholin-4-yl]-3-fluoro-pyrazolo[1,5-a]pyridine-7-carbonitrile] | 157
7 | C[C@@H]1CN(c2ccc(C#N)n3ncc(F)c23)C[C@H](CN2CCN(c3ccc([C@@H]4CNCCO4)c(F)c3)CC2)O1 [Example 184, 3-fluoro-4-[(2S,6R)-2-[[4-[3-fluoro-4-[(2R)-morpholin-2-yl]phenyl]piperazin-1-yl]methyl]-6-methyl-morpholin-4-yl]pyrazolo[1,5-a]pyridine-7-carbonitrile] | 124
8 | C[C@@H]1CN(c2ccc(C#N)n3ncc(F)c23)C[C@H](CN2CCN(c3ccc(C4(C)CNCCO4)cc3)CC2)O1 (stereo partly drawn) [Example 185, 3-fluoro-4-[(2R,6S)-2-methyl-6-[[4-[4-(2-methylmorpholin-2-yl)phenyl]piperazin-1-yl]methyl]morpholin-4-yl]pyrazolo[1,5-a]pyridine-7-carbonitrile] | 186
9 | C[C@@H]1CN(c2ccc(C#N)n3ncc(F)c23)C[C@H](CN2CCN(c3ccc(C[C@@H]4CNCCO4)cc3)CC2)O1 [Example 186, 3-fluoro-4-[(2R,6S)-2-methyl-6-[[4-[4-[[(2R)-morpholin-2-yl]methyl]phenyl]piperazin-1-yl]methyl]morpholin-4-yl]pyrazolo[1,5-a]pyridine-7-carbonitrile] | 124

The remaining lines, values ahead:

Row | IC50 [nM] | SMILES
10 | 35 | C[C@@H]1CN(c2cc(=O)n(C)c3ncccc23)C[C@H](CN2CC(c3ccc(N4CCNCC4)cc3)C2)O1 [Example 171, 1-methyl-4-[(2R,6S)-2-methyl-6-[[3-(4-piperazin-1-ylphenyl)azetidin-1-yl]methyl]morpholin-4-yl]-1,8-naphthyridin-2-one]
11 | 60 | C[C@@H]1CN(c2cc(=O)n(C)c3ncccc23)C[C@H](CN2CC(c3ccc(N4CC5(CNCCO5)C4)cc3)C2)O1 [Example 173, 1-methyl-4-[(2R,6S)-2-methyl-6-[[3-[4-(5-oxa-2,8-diazaspiro[3.5]nonan-2-yl)phenyl]azetidin-1-yl]methyl]morpholin-4-yl]-1,8-naphthyridin-2-one]
12 | 101 | C[C@@H]1CN(c2cc(=O)n(C)c3ncccc23)C[C@H](CN2CC(c3ccc(N4CC(C)(N)C4)cc3)C2)O1 [Example 176, 4-[(2S,6R)-2-[[3-[4-(3-amino-3-methyl-azetidin-1-yl)phenyl]azetidin-1-yl]methyl]-6-methyl-morpholin-4-yl]-1-methyl-1,8-naphthyridin-2-one]
13 | 98 | C[C@@H]1CN(c2ccc(C#N)n3ncc(F)c23)C[C@H](CN2CCN(c3ccc([C@@H]4CNCCO4)cc3)CC2)O1 [Example 177, 3-fluoro-4-[(2R,6S)-2-methyl-6-[[4-[4-[(2R)-morpholin-2-yl]phenyl]piperazin-1-yl]methyl]morpholin-4-yl]pyrazolo[1,5-a]pyridine-7-carbonitrile]
14 | 41 | C[C@@H]1CN(c2cc(=O)n(C)c3ncccc23)C[C@H](CN2CC(c3ccc(N4CC5(CN(C)C5)C4)cc3)C2)O1 [Example 180, 1-methyl-4-[(2R,6S)-2-methyl-6-[[3-[4-(6-methyl-2,6-diazaspiro[3.3]heptan-2-yl)phenyl]azetidin-1-yl]methyl]morpholin-4-yl]-1,8-naphthyridin-2-one]
15 | 39 | C[C@@H]1CN(c2cc(=O)n(C)c3ncccc23)C[C@H](CN2CC(c3ccc(N4C[C@H]5NCCO[C@@H]5C4)cc3)C2)O1 [Example 182, 4-[(2S,6R)-2-[[3-[4-[(4aR,7aR)-3,4,4a,5,7,7a-hexahydro-2H-pyrrolo[3,4-b][1,4]oxazin-6-yl]phenyl]azetidin-1-yl]methyl]-6-methyl-morpholin-4-yl]-1-methyl-1,8-naphthyridin-2-one]
